Experimental data reported in ChEMBL document CHEMBL1201862, “PubChem BioAssay data set” (2004).
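Five compound concentrations were applied to cells in 96-well plates for 48 hours; endpoints were derived by simple linear interpolation of the resulting dose-response curve. GI50 marks 50% less growth.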 Calls of active or inactive are those of the source. Cut-off read from the data, not from the text of the source: active = GI50 up to about 1.1 µM and inactive = higher.

Tests used:
Assay in all cases: growth of human tumour cells (NCI), 48 h
[1] = system: 786-0
[2] = system: CAKI-1
[3] = system: SF-539
[4] = system: COLO 205
[5] = system: OVCAR-8
[6] = system: HOP-62
[7] = system: OVCAR-3
[8] = system: OVCAR-4
[9] = system: UACC-62
[10] = system: UO-31
[11] = system: HCT-116
[12] = system: KM12
[13] = system: SK-MEL-2
[14] = system: SK-OV-3
[15] = system: MDA-MB-231
[16] = system: RPMI-8226
[17] = system: MCF7
[18] = system: NCI-H23
[19] = system: U-251
[20] = system: K562

Measured: GI50

Clc1ccc(CN2CCCN(Cc3ccc(Cl)cc3)C2c2cc3ccccc3c3ccccc23)cc1
inactive: [1] 75 µM | [2] 49.8 µM | [3] 62.2 µM | [4] 19.7 µM | [5] > 100 µM | [6] > 100 µM | [7] 57.9 µM | [8] 55.6 µM | [9] 18.7 µM | [10] 88.1 µM | [11] 44.8 µM | [12] 60.3 µM | [13] 25.5 µM | [14] > 100 µM | [15] 25.4 µM | [16] 45.1 µM | [17] 37.2 µM | [18] 46.3 µM | [19] 33.3 µM

O=C(/C=C\c1ccccc1)Oc1ccc(/C=C2\CCC/C(=C\c3ccc(OC(=O)/C=C\c4ccccc4)cc3)C2=O)cc1
inactive: [1] > 100 µM | [2] > 100 µM | [3] > 100 µM | [4] > 100 µM | [5] > 100 µM | [6] > 100 µM | [7] > 100 µM | [8] > 100 µM | [9] > 100 µM | [10] > 100 µM | [11] > 100 µM | [12] > 100 µM | [13] > 100 µM | [15] > 100 µM | [16] > 100 µM | [17] > 100 µM | [18] > 100 µM | [19] > 100 µM

CC1=NN(C(=O)CSc2nnc(SCC(=O)N3N=C(C)CC3(O)c3ccccc3)s2)C(O)(c2ccccc2)C1 (centres undefined)
inactive: [1] 43.3 µM | [2] 45.8 µM | [4] 32.1 µM | [5] 26.9 µM | [6] 51.3 µM | [7] 41.1 µM | [8] 32.9 µM | [9] 18.6 µM | [10] 22.3 µM | [11] 30.9 µM | [12] 26.7 µM | [13] 29.2 µM | [20] 32.6 µM | [14] > 100 µM | [15] 95.5 µM | [16] 15.5 µM | [17] 35.1 µM | [18] 34 µM | [19] > 100 µM

N#Cc1c(-c2ccccc2)c(/C=N/c2cccc(C(F)(F)F)c2)c(=O)n2c1[nH]c1ccccc12
inactive: [1] 36.1 µM | [2] 2.07 µM | [3] 16.7 µM | [4] > 100 µM | [5] 24.8 µM | [6] 30.5 µM | [8] 51.1 µM | [10] 7.62 µM | [11] 29.6 µM | [12] 19.4 µM | [13] 22.1 µM | [14] 26.9 µM | [15] 42.3 µM | [16] 6.35 µM | [17] 35.6 µM | [18] 34.9 µM | [19] 45 µM

COc1ccc2c3c1OC1c4[nH]c5ccccc5c4CC4(O)C(C2)N(C)CCC314 (centres undefined)
inactive: [1] 18.7 µM | [2] 35.3 µM | [4] 18.4 µM | [5] 66.4 µM | [6] 40.3 µM | [7] 42.3 µM | [8] 44.3 µM | [9] 20.9 µM | [10] 13.6 µM | [11] 32.3 µM | [12] 30.3 µM | [13] 18.4 µM | [20] 15.3 µM | [14] > 100 µM | [15] 25.5 µM | [16] 19.3 µM | [17] 21.8 µM | [18] > 100 µM | [19] 21 µM

COC(=O)[C@H]1NC(=O)CCSSC1(C)C
inactive: [1] > 100 µM | [2] > 100 µM | [3] > 100 µM | [4] > 100 µM | [5] > 100 µM | [6] > 100 µM | [7] > 100 µM | [8] > 100 µM | [9] > 100 µM | [10] > 100 µM | [11] > 100 µM | [12] > 100 µM | [13] > 100 µM | [20] > 100 µM | [15] > 100 µM | [16] > 100 µM | [17] > 100 µM | [18] > 100 µM | [19] > 100 µM

COC(=O)[C@H](Cc1ccccc1)NC(=O)c1ccc(CNC(=O)/C=C/c2ccc(-c3ccccc3)cc2)cc1
inactive: [1] 3.56 µM | [2] 65 µM | [4] > 100 µM | [5] 7.1 µM | [6] 15.6 µM | [7] > 100 µM | [8] > 100 µM | [9] 44.2 µM | [10] > 100 µM | [11] 4.95 µM | [12] > 100 µM | [13] > 100 µM | [20] 77.1 µM | [14] 57.8 µM | [15] 22.1 µM | [16] > 100 µM | [17] > 100 µM | [18] 27.8 µM | [19] 5.97 µM

O=S(=O)(O)c1cc(Nc2ccnc3ccccc23)c2c(S(=O)(=O)O)cc(S(=O)(=O)O)cc2c1
inactive: [1] > 100 µM | [2] > 100 µM | [3] > 100 µM | [4] > 100 µM | [5] > 100 µM | [6] > 100 µM | [7] > 100 µM | [8] > 100 µM | [9] > 100 µM | [10] > 100 µM | [11] > 100 µM | [12] > 100 µM | [13] > 100 µM | [14] > 100 µM | [15] > 100 µM | [16] > 100 µM | [17] > 100 µM | [18] > 100 µM | [19] > 100 µM
